Several values for one entry are separate records, joined by “and”; a condition that tells them apart may be missing. Equal entries are not always repeated.

The subject of series [1] is Oryctolagus sp. Particulars: acute; dermal; occlusive; New Zealand.
The test system of series [2] is Rattus norvegicus. Particulars: for LC50 / LD50: acute; for LD50 / NOAEL: oral, gavage; for NOAEL: reproduction developmental.
Series [3] concerns Rattus norvegicus. Put plainly: LC0; higher = less toxic. The conditions noted are these: acute.
For another series, the system named is Cavia porcellus. The conditions noted are these: acute; oral; Guinea Pig.
A further series deals with Microhyla ornata. Particulars: short-term, whole body.
The subject of series [4] is Mus musculus. Particulars: inhalation.
Series [5] has as its system Mus musculus. The conditions noted are these: repeat dose other; oral.
Series [6] deals with Rattus norvegicus. The conditions noted are these: subchronic; duration: 13 weeks; oral; gavage; M/F; Fischer 344; Deaths + Body Weight Changes: decrease + Hematology: WBC decrease, Lympho decrease + Histopathology: Spleen-B-cell depletion Spleen-….
Series [7] has as its system Mus musculus.
Another series relates to Homo sapiens. Particulars: clinical; duration: 1 days; inhalation; M/F; respiratory.
For series [8], the system named is Oryctolagus sp. Particulars: developmental; duration: 13 days; oral; gavage; M/F; New Zealand; developmental.
Series [9] relates to Mus musculus. The conditions noted are these: M/F.
For series [10], the system named is Mus musculus. This is another data set of the same source.
Series [11] relates to Canidae. The conditions noted are these: chronic, duration: 2 years, oral, diet, M/F, Dog Other.
Series [12] concerns Rattus norvegicus. Particulars: Hershberger; duration: 10 days; oral; gavage; Sprague-Dawley; inactive + Negative + Negative + neither + negative.
For series [13], the system named is Canidae. Particulars: chronic, oral, diet, Dog Other.
For series [14], the system named is Rattus norvegicus. Particulars: chronic, M/F.
The subject of series [15] is Rattus norvegicus. Particulars: chronic, duration: 2 years, oral.
Series [16] has as its system Rattus norvegicus. The conditions noted are these: inhalation, whole body, respiratory.
Series [17] concerns Mus musculus. Particulars: subchronic; duration: 13 weeks; oral; gavage; M; SPF-ICR.
Setting [18] is: reproduction developmental, duration: 6 days, Crl: CFW(SW)Br, Charles River Laboratories, generation: F1.
The mark [19] stands for this setting: reproduction developmental, M, CD1.
The mark [20] stands for this setting: subchronic, oral, reduced rbc, packed cell volume and hemoglobin.
[21] abbreviates: subchronic, inhalation, reduced body weight.
Setting [22] is: reduced body weight gain, increased liver and kidney weight, and rbc cholinesterase inhibition.
Where [23] appears, read: inhalation, nasal epithelial lesions.
Where [24] appears, read: chronic, duration: 104 weeks, oral, diet, reduced hemoglobin and erythrocyte destruction.

Take `Cc1cccnc1` [3-Methylpyridine]: the median lethal dose (LD50) is ≥ 126 mg/kg and ≤ 200 mg/kg in the series with Oryctolagus sp. [1]; 630 mg/kg in the series on Rattus norvegicus [2] (Fischer 344); 710 mg/kg with Rattus norvegicus [2] (Sprague-Dawley). Further, in the series with Rattus norvegicus [2] (inhalation, Sprague-Dawley), the LC50 is < 11.8 mg/mL. In the series on Rattus norvegicus [2] (short-term, duration: 2 weeks, inhalation, Crl:CD(SD) BR), this molecule registered an LOAEL of 1100 mg/m3. The LC0 in the series with Rattus norvegicus [3] (inhalation, Crl:CD(SD) BR) was ≥ 4950 mg/m3 and ≤ 12600 mg/m3.

As to `Nc1ccc(C=Cc2ccc(N)cc2S(=O)(=O)O)c(S(=O)(=O)O)c1` [4,4'-Diamino-2,2'-stilbenedisulfonic acid], the median lethal dose (LD50) in the series with Cavia porcellus was determined as 47000 mg/kg. Besides, the no observed adverse effect level (NOAEL) with Rattus norvegicus [2] (Sprague-Dawley, generation: F0) worked out at 1000 mg/kg-day; in the series on Rattus norvegicus [2] (Sprague-Dawley, generation: F1) it was 1000 mg/kg-day. This molecule also gave an LC0 in the series on Rattus norvegicus [3] (oral, Sprague-Dawley) of 3000 mg/kg.

For the molecule `Cc1cc(C(C)(C)c2cc(C)c(O)c(C)c2)cc(C)c1O` [4,4'-Propane-2,2-diylbis(2,6-dimethylphenol)], the LOEL in the series on Microhyla ornata (duration: 9 day, M/F, DNA fragmentation) was 1 µM; in the series with Microhyla ornata (duration: 11 day, EGFP activitiy), 1 µM.

For `c1ccccc1` [Benzene], the LOAEL came out at 31.9 mg/m3 in the series on Mus musculus [4] (repeat dose other, CD1); 63.9 mg/m3 in the series on Mus musculus [4] (setting [18]); 958 mg/m3 in the series with Mus musculus [4] (reproduction developmental, F, CD1); 958 mg/m3 in the series on Mus musculus [4] (setting [19]); 264 mg/kg-day in the series on Mus musculus [5]; 32.6 mg/m3 in the series on Mus musculus [7] (short-term, duration: 6 days, inhalation, whole body, M, C57BL/6, immunological). In the series with Mus musculus [7] (short-term, duration: 20 days, inhalation, M, C57Bl/6, immunological), this molecule showed an LOAEL of 31.9 mg/m3. Besides, the NOAEL with Mus musculus [4] (setting [18]) was 31.9 mg/m3; in the series with Mus musculus [4] (reproduction developmental, duration: 6 days, F, Crl: CFW(SW)Br, Charles River Laboratories), 63.9 mg/m3; with Mus musculus [4] (setting [19]), 95.8 mg/m3; in the series on Mus musculus [5], 26.4 mg/kg-day. In the series with Rattus norvegicus [2] (inhalation, Sprague-Dawley), this molecule came in with an LC50 of 43800 mg/m3. The NOEL in the series on Rattus norvegicus [6] is < 25 mg/kg-day.

For the molecule `[B]` [Boron], the no-observed-adverse-effect level (NOAEL) worked out at 0.8 mg/m3 in the series with Homo sapiens and 22 mg/kg-day in the series on Oryctolagus sp. [8].

Consider `c1ccc2c(c1)Cc1ccccc1-2` [Fluorene], for which the LOAEL in the series on Mus musculus [9] (setting [20]) amounted to 250 mg/kg-day; with Mus musculus [7] (subchronic, duration: 90 days, oral, gavage, M/F, CD1, hepatic), 125 mg/kg-day. The no-observed-adverse-effect level (NOAEL) is 125 mg/kg-day in the series on Mus musculus [9] (setting [20]) and 125 mg/kg-day in the series with Mus musculus [10] (subchronic, duration: 13 weeks, oral, gavage, Erythrocytes: Decreased counts).

For `[Hg+2].[S-2]` [Mercury sulfide (HgS)], the NOAEL in the series with Mus musculus [5] is 13.2 mg/kg-day.

For the molecule `CNC(=O)ON=C(C)SC` [Methomyl], the LEL with Canidae [11] (kidney and spleen pathology) came to 10 mg/kg-day. Besides, the NOEL turned out to be 2.5 mg/kg-day with Canidae [11] (kidney and spleen pathology); 1 mg/kg-day in the series on Rattus norvegicus [12]; 2.5 mg/kg-day in the series with Canidae [13] (duration: 24 months, Kidney: Lesions).

In the series on Mus musculus [9] (setting [21]), `P` [Phosphine] displayed an LOAEL of 6.3 mg/m3. Further, the NOAEL in the series on Mus musculus [9] (setting [21]) stood at 1.4 mg/m3; in the series on Mus musculus [10] (subchronic, duration: 13 weeks, inhalation, intermittent, Whole body: Decreased weight), 1.4 mg/m3. In addition, the NOEL was 0.026 mg/kg-day in the series with Rattus norvegicus [14] (oral, body weight and clinical parameters); 0.026 mg/kg-day in the series with Rattus norvegicus [15] (diet).

Turning to `CCOP(=S)(OCC)SCSC(C)(C)C` [Terbufos], in the series on Canidae [13] (duration: 6 months, Cholinesterase: Inhibition), the NOAEL worked out at 0.0025 mg/kg-day.

Regarding `COP(=O)(OC)O/C(=C/Cl)c1cc(Cl)c(Cl)cc1Cl` [Tetrachlorovinphos], in the series with Canidae [11] (setting [22]), the LEL came out at 50 mg/kg-day and the NOEL worked out at 3.13 mg/kg-day. In addition, the NOEL in the series with Canidae [13] (duration: 2 years, Kidney: Increased weight + Liver: Increased weight) came out at 3.1 mg/kg-day.

`C=COC(C)=O` [Vinyl acetate] came in with an LOAEL in the series on Rattus norvegicus [14] (setting [23]) of 704 mg/m3. Also, the no-observed-adverse-effect level (NOAEL) was 176 mg/m3 with Rattus norvegicus [14] (setting [23]); 174 mg/m3 in the series on Rattus norvegicus [16] (chronic, duration: 104 weeks, M/F, Crl:CD(SD)BR Sprague-Dawley); 703 mg/m3 in the series with Rattus norvegicus [16] (short-term, duration: 4 weeks, M, Sprague-Dawley (Crl:CD BR)); 703 mg/m3 with Rattus norvegicus [16] (short-term, duration: 5 days, M, Sprague-Dawley (Crl:CD BR)); 176 mg/m3 in the series with Mus musculus [10] (chronic, duration: 104 weeks, inhalation, intermittent, Nasal cavity: Lesions); 100 mg/kg-day with Rattus norvegicus [15] (drinking water, Kidney: Altered weight + Whole body: Altered weight).

For `CC(CCl)OC(C)CCl` (stereo not given) [bis(2-Chloro-1-methylethyl) ether], in the series with Mus musculus [9] (setting [24]), the lowest-observed-adverse-effect level (LOAEL) was determined as 198 mg/kg-day and the NOAEL was 35.8 mg/kg-day. The molecule further displayed an LOAEL in the series on Mus musculus [17] of 9.69 mg/kg-day.

One may read the LD50 as the dose at which mortality reaches 50%. What is called LOAEL is the lowest tested level that showed an adverse finding. Usually NOAEL stands for the highest tested level that showed no adverse finding.

For the origin of these results see EPA's ToxValDB 9.5.
